Results taken from paper PMC12188386, “Selective CBP/EP300 Bromodomain Inhibitors: Novel Epigenetic Tools to Counter TNF-α-Driven Inflammation” (JACS Au, 2025).

Experiments:
[1] = tested on: TNF-α-induced cytokine expression in THP-1 cells; experiment: cytokine mRNA expression by RT-qPCR; type: cell-based, human; conditions: 1 h co-treatment of THP-1 cells with 10 ng/mL TNF-α and 1 μM compound
Protocol: For cytokine expression determination, 5x10^5 THP-1 cells were plated on 12 well plates the day prior to treatment with 10 ng/mL recombinant human TNF -α (aa 77-233) protein (R&D systems, 10291 -TA) and compounds at a final concentration of 0.1 % DMSO. In all cases, total
RNA was extracted using the NucleoSpin® RNA kit (Machery -Nagel) and used for cDNA synthesis with the High -Capacity cDNA Reverse Transcription kit (Applied Biosystems). RT-qPCR reactions were performed using PowerSYBR™ green PCR Master Mix (Applied Biosystems) and a LightCycler® 480 (Roche). cDNA was denatured for 10 min at 95 °C followed by 40 cycles of 15 s at 95 °C and 1 min at 60 °C. Cp values were determined as the maximum of the second derivative and target gene expression was compared to that of hprt from the same sample using the 2-ΔCp method. Gene expression was then normalized to the average of the control samples from the same day, or all biological replicates. […]

[2] = tested on: MRC5 cells; experiment: viability assay (resazurin); type: cell-based; conditions: three-day treatment, concentration resulting in 70 % viability
Protocol: MRC5 (2x10^3 cells/well) or THP-1 (8x10^3 cells/well) cells were plated onto 96 well plates and treated with compounds at a final DMSO concentration of 0.5 % (MRC5) or 0.1 % (THP-1).
After 3 days of treatment, resazurin (Acros Organics) was added at a final concentration of 86 μ and incu ated for 2h15 (MRC5) or 3 h (THP-1). Fluorescence (ex. 560 nm, em. 590 nm) was read using a SpectraMax M5 (Molecular devices). GI30 values were calculated as the compound concentration resulting in 70 % viability compared to DMSO treated controls using a nonlinear regression fit using GraphPad Prism with the following equation: (Y=Bottom + (100-Bottom)/(1+(IC50/X)^HillSlope)). […]
After 1.5 h, mice were injected with 10 µL of the prepared CAPTISOL […]
(§1) foodpad and also intraperitoneally (for i.p. injection, the 10 µL of CAPTISOL solution was diluted to a final volume of 100 µL using PBS). Organs were collected 5 h after TNF-α […]
(§2) LEGENDPlexTM assays (Mouse Pro-inflammatory Chemokine Panel and Mouse Inflammation Panel; Biolegend) were performed to monitor cytokine/chemokine expression. Briefly, popliteal LNs were collected and carefully disrupted in […] ice-cold phosphate buffer, minimizing cell rupture. The suspension was centrifuged at 1,500 rpm for 5 min, and the […]

[3] = tested on: rmTNF-α-induced cytokines in the popliteal lymph node; experiment: TNF-α induced inflammation model, cytokines in pLN (LEGENDplex); type: in vivo, mouse; conditions: mice, 5 h post-rmTNF-α; for concentrations of IL-1β, MCP-1, IL-1α and IL-6 in the pLN: CAPTISOL solutions s.c. (footpad) and i.p. 90 min after rmTNF-α, vs rmTNF-α + CAPTISOL
Protocol: C57BL/6 mice were bred in -house or acquired from Charles River Laboratories. Mice were maintained in specific pathogen -free facilities at the Institute for Research in Biomedicine, Bellinzona. Experiments were performed following the Swiss Federal Veterina ry Office guidelines and authorized by the relevant institutional committee of the Cantonal Veterinary (Commissione cantonale per gli esperimenti sugli animali, Ticino) .
TNF-α induced inflammation model
Recombinant Mouse TNF-α (rmTNF-α) (aa 80-235) Protein (Cat# 410-MT-050/CF) was purchased from RnDsystems® and resuspended following instruction into sterile PBS. Mice were anesthetized with isoflurane and 300 ng of rmTNF-α was administered subcutaneously in the footpad (10 µL injection volume), and for the experiments with the CBP/EP300 inhibitors an additional 300 ng of rmTNF-α was also administered intraperitoneally (100 µL injection volume). After 1.5 h, mice were injected with 10 µL of the prepared CAPTISOL […]
as §1, §2
supernatant was c ected. μ supernatant was used f r the pr t c f win the manufacturer’s instructi ns. amp es were ana zed f w c t metr n an rtessa Biosciences), and data was analyzed using LEGENDPlex software (BioLegend).
Popliteal LNs were collected, disrupted with tweezers, and digested for 10 min at 37°C in an enzyme mix composed of DNase I (0.28 mg/mL, Amresco), dispase (1 U/mL, Corning), and collagenase P (0.5 mg/mL, Roche) in calcium- and magnesium-free PBS (PBS-, Sigma-Aldrich) followed by a stop solution composed of 2 mM EDTA (Sigma -Aldrich) and 2% heat-inactivated filter-sterilized fetal calf serum (Thermo Fisher Scientific) in PBS -. […] Where indicated, intracellular staining was performed using Intracellular Fixation and Permeabilization Buffer Set (eBioscience), following the manufacturer’s instructi ns. ead ce s were exc uded u sing Zombie fixable viability dye (Biolegend), and data were analyzed using FlowJo software (TriStar Inc).
In this study, various combinations of the following fluorescence -conjugated antibodies have been used for cell-surface phen t pic stainin : α - α α […]
Data was analysed and graphs prepared using GraphPad Prism. […]

[4] = tested on: immune cell recruitment to the popliteal lymph node; experiment: TNF-α induced inflammation model, flow cytometry of pLN; type: in vivo, mouse; conditions: mice, flow cytometry 5 h post-injection of rmTNF-α, vs control group
[5] = tested on: leukemia, melanoma and breast cancer cell lines; experiment: NCI-60 antiproliferation screen; type: cell-based, human; conditions: 10 µM
Protocol: Adapted from NCI-60 Screening Methodology, one-dose screen:20 Briefly, human tumor cell lines, grown in RPMI 1640 containing 5% FBS and 2 mM L-glutamine, were plated in 96 well plates at densities ranging from 5,000 to 40,000 cells/well 24 h prior to addition of test compounds (here 10 μM 2). 400x solutions of test compounds were prepared in DMSO, then diluted to 2x in medium supplemented with 50 μg/mL gentamicin. 100 μl of this 2x stock was added to cells previously plated in 100 μl medium, resulting in the desired final compound concentration. Cells were fixed in situ with cold TCA: untreated cells at the time of compound addition (Tz) and treated cells 48 h after addition of compound (Ti). Cells were washed, then su f rh damine s uti n μ at . w/v in acetic acid was added to each well and incubated for 10 minutes at room temperature. After washing again, the plates were air dried and bound stain solubilized with 10 mM Trizma base before absorbance was […]
Percentage growth (%Growth) was calculated as follows:
when Ti ≥ Tz, %Growth = Ti − Tz x 100 where Ti = absorbance from compound treated cells, Tz = absorbance from untreated cells at time zero, and C = absorbance from control (DMSO) treated cells. […]

| Compound | TNF-α-induced expression of il1β, il8, mcp-1 and tnf-α (mRNA) [1] | GI30 [2] [µM] | decrease of IL-6 in the pLN compared to GNE-272 [3] [fold] | concentrations of IL-1β, MCP-1, IL-1α and IL-6 in the pLN [3] | recruitment of lymphocytes (T and B cells), dendritic cells and neutrophils to the pLN [4] | growth of cancer cell lines (NCI-60), in words [5] |
| --- | --- | --- | --- | --- | --- | --- |
| Cc1cc2c(NC(=O)c3cc(NC(=O)c4ccco4)cc(-c4ccn(C)n4)c3)cccc2nn1 [Compound 2] | inhibited expression to a greater extent than the less potent but more soluble inhibitor 5 | > 10 | 4 | significant reduction | significantly inhibited the recruitment of lymphocytes | strongly inhibit the growth of leukemia, melanoma and breast cancer cell lines |
| Cc1cc2c(NC(=O)c3cc(NC(=O)[C@H]4CCCO4)cc(-c4ccn(C)n4)c3)cccc2nn1 [Compound 5] |  | > 10 | 7 | significant reduction |  |  |
